Reference: PubChem BioAssay AID274 (DTP/NCI, 2004)
Several values for one entry are separate records, joined by “and”; a condition that tells them apart may be missing. Equal values may be shown once. Inconclusive results and toxic doses are left out. How the source made its calls: active means survival T/C of 150% or more; inactive means T/C below 125% in these data.

System: BDF1 mice, Lewis lung carcinoma iv, survival T/C
Experiment: NCI In Vivo Anticancer Drug Screen. Data for tumor model Lewis Lung Carcinoma (intravenous) in B6D2F1 (BDF1) mice
Conditions: endpoint: median survival time, higher = longer survival
Procedure: The antitumor activity of compounds was measured in mice bearing transplantable tumors. Survival or tumor size were measured and the results are expressed as the measurement made in the treated group (T) divided by the measurement made in the vehicle treated control group (C). The tumor model used in this assay is Lewis Lung Carcinoma (intravenous) in B6D2F1 (BDF1) mice

[1] = dose: 12.5 mg/kg/injection, schedule: Q01DX009 (ip), vehicle: Klucel (hydroxypropylcellulose) (HPC)
[2] = dose: 6.25 mg/kg/injection, schedule: Q01DX009 (ip), vehicle: saline
[3] = dose: 12.5 mg/kg/injection, schedule: Q01DX009 (ip), vehicle: saline
[4] = dose: 12.5 mg/kg/injection, schedule: Q01DX009 (ip), vehicle: saline with Tween-80
[5] = dose: 25.0 mg/kg/injection, schedule: Q01DX009 (ip), vehicle: saline with Tween-80
[6] = dose: 50.0 mg/kg/injection, schedule: Q01DX009 (ip), vehicle: saline with Tween-80
[7] = dose: 0.78 mg/kg/injection, schedule: Q01DX009 (ip), vehicle: saline
[8] = dose: 1.56 mg/kg/injection, schedule: Q01DX009 (ip), vehicle: saline
[9] = dose: 3.12 mg/kg/injection, schedule: Q01DX009 (ip), vehicle: saline
[10] = dose: 100.0 mg/kg/injection, schedule: Q01DX009 (ip), vehicle: saline with Tween-80
[11] = dose: 200.0 mg/kg/injection, schedule: Q01DX009 (ip), vehicle: saline with Tween-80
[12] = dose: 25.0 mg/kg/injection, schedule: Q01DX009 (ip), vehicle: suspension in saline

Measured: T/C

Clc1ccc(C2SC=Cc3ccccc32)cc1 (configuration not stated)
inactive: [1] 94 % of control | dose: 25.0 mg/kg/injection, schedule: Q01DX009 (ip), vehicle: Klucel (hydroxypropylcellulose) (HPC) 105 % of control | dose: 50.0 mg/kg/injection, schedule: Q01DX009 (ip), vehicle: Klucel (hydroxypropylcellulose) (HPC) 108 % of control | dose: 100.0 mg/kg/injection, schedule: Q01DX009 (ip), vehicle: Klucel (hydroxypropylcellulose) (HPC) 108 % of control | dose: 200.0 mg/kg/injection, schedule: Q01DX009 (ip), vehicle: Klucel (hydroxypropylcellulose) (HPC) 115 % of control | dose: 400.0 mg/kg/injection, schedule: Q01DX009 (ip), vehicle: Klucel (hydroxypropylcellulose) (HPC) 108 % of control

COc1cc2cc3cc4cc(OC)c(OC)cc4c(C)[n+]3cc2cc1OC (tested in a mixture with another compound)
inactive: [2] 104 % of control | [3] 106 % of control | dose: 25.0 mg/kg/injection, schedule: Q01DX009 (ip), vehicle: saline 107 % of control | dose: 50.0 mg/kg/injection, schedule: Q01DX009 (ip), vehicle: saline 111 % of control

N#CC(=C1SCS1)[N+](=O)[O-]
inactive: dose: 0.75 mg/kg/injection, schedule: Q01DX009 (ip), vehicle: saline with Tween-80 94 % of control | dose: 1.5 mg/kg/injection, schedule: Q01DX009 (ip), vehicle: saline with Tween-80 102 % of control | dose: 3.0 mg/kg/injection, schedule: Q01DX009 (ip), vehicle: saline with Tween-80 102 % of control | dose: 6.0 mg/kg/injection, schedule: Q01DX009 (ip), vehicle: saline with Tween-80 92 % of control

Cc1oc2c(C)c3oc(=O)cc(C)c3cc2c1CCl
inactive: [4] 102 % of control | [5] 101 % of control | [6] 95 % of control

C[CH2][Sn]([CH2]C)([O]S(C)(=O)=O)[O]S(C)(=O)=O
inactive: [7] 98 % of control | [8] 105 % of control | [9] 93 % of control | [2] 92 % of control | [3] 93 % of control

COc1cc2c(c(OC)c1O)-c1ccc(OC)c(=O)cc1[C@@H](NC(=O)C(F)(F)F)CC2
inactive: dose: 0.62 mg/kg/injection, schedule: Q01DX009 (ip), vehicle: Klucel (hydroxypropylcellulose) (HPC) 101 % of control | dose: 1.25 mg/kg/injection, schedule: Q01DX009 (ip), vehicle: Klucel (hydroxypropylcellulose) (HPC) 87 % of control | dose: 2.5 mg/kg/injection, schedule: Q01DX009 (ip), vehicle: Klucel (hydroxypropylcellulose) (HPC) 88 % of control

Nc1ncnc2c1ncn2C1OC(COP(=O)(O)O)C(O)C1O (configuration not stated)
inactive: dose: 12.5 mg/kg/injection, schedule: Q01DX009 (ip), vehicle: water 104 % of control | dose: 25.0 mg/kg/injection, schedule: Q01DX009 (ip), vehicle: water 112 % of control | dose: 50.0 mg/kg/injection, schedule: Q01DX009 (ip), vehicle: water 100 % of control | dose: 100.0 mg/kg/injection, schedule: Q01DX009 (ip), vehicle: saline 97 % of control | dose: 100.0 mg/kg/injection, schedule: Q01DX009 (ip), vehicle: water 103 % of control | dose: 200.0 mg/kg/injection, schedule: Q01DX009 (ip), vehicle: saline 118 % of control | dose: 200.0 mg/kg/injection, schedule: Q01DX009 (ip), vehicle: water 100 % of control | dose: 400.0 mg/kg/injection, schedule: Q01DX009 (ip), vehicle: saline 96 % of control | dose: 800.0 mg/kg/injection, schedule: Q01DX009 (ip), vehicle: saline 108 % of control

CCO/C=C1\SC(=S)N(c2ccccc2C)C1=O
inactive: [4] 96 % of control | [5] 94 % of control | [6] 100 % of control | [10] 106 % of control | [11] 99 % of control

CN(C)CCCNc1c2ccccc2nc2cccc([N+](=O)[O-])c12
inactive: dose: 44.8 micrograms/kg/injection, schedule: Q04DX003 (ip), vehicle: saline 92 % of control | dose: 124.0 micrograms/kg/injection, schedule: Q04DX003 (ip), vehicle: saline 92 % of control | dose: 346.0 micrograms/kg/injection, schedule: Q04DX003 (ip), vehicle: saline 86 % of control

Cc1c2cc[n+](CCN3CCCCC3)cc2c(C)c2c1[nH]c1ccc(O)cc12
inactive: dose: 1.56 mg/kg/injection, schedule: Q01DX009 (ip), vehicle: suspension in saline 105 % of control | dose: 3.12 mg/kg/injection, schedule: Q01DX009 (ip), vehicle: suspension in saline 100 % of control | dose: 6.25 mg/kg/injection, schedule: Q01DX009 (ip), vehicle: suspension in saline 109 % of control | dose: 12.5 mg/kg/injection, schedule: Q01DX009 (ip), vehicle: suspension in saline 118 % of control | [12] 122 % of control

Cc1ccc2c(c1)N=C(Nc1ccccc1)N=S2(C)=O (configuration not stated)
inactive: dose: 6.25 mg/kg/injection, schedule: Q01DX009 (ip), vehicle: saline with Tween-80 102 % of control | [4] 102 % of control | [5] 111 % of control | [6] 112 % of control | [10] 115 % of control | [11] 116 % of control

ClCc1ccc2ccccc2n1
inactive: [5] 100 % of control | [6] 92 % of control | [10] 119 % of control

CCCCCCCCCCCCCCCCCC1=NC(C)CC(C)(C)O1 (configuration not stated)
inactive: [6] 106 % of control | [10] 103 % of control | [11] 98 % of control

N=[N+]=CC(=O)OCC(N)C(=O)O (configuration not stated)
inactive: [7] 98 % of control | [8] 103 % of control | [9] 100 % of control | [2] 104 % of control | [3] 117 % of control

CNC=O
inactive: dose: 100.0 mg/kg/injection, schedule: Q01DX009 (ip), vehicle: saline sonified 106 % of control | dose: 200.0 mg/kg/injection, schedule: Q01DX009 (ip), vehicle: saline sonified 114 % of control | dose: 400.0 mg/kg/injection, schedule: Q01DX009 (ip), vehicle: saline sonified 115 % of control

Nc1nc2n[nH]nc2c(=O)[nH]1
inactive: [12] 93 % of control | dose: 50.0 mg/kg/injection, schedule: Q01DX009 (ip), vehicle: suspension in saline 98 % of control

NC(=S)n1cccn1
inactive: [6] 99 % of control | [10] 94 % of control | [11] 103 % of control

O.O.[NH-]C1CCCCC1[NH-].[Pt+2] (configuration not stated)
inactive: dose: 0.31 mg/kg/injection, schedule: Q01DX009 (ip), vehicle: dextrose 95 % of control | dose: 2.5 mg/kg/injection, schedule: Q01DX009 (ip), vehicle: dextrose 99 % of control | dose: 5.0 mg/kg/injection, schedule: Q01DX009 (ip), vehicle: dextrose 112 % of control | dose: 10.0 mg/kg/injection, schedule: Q01DX009 (ip), vehicle: dextrose 117 % of control

COc1ccc(OC)c(/C=C/c2ccnc3ccccc23)c1
inactive: [4] 94 % of control and 100 % of control | [5] 104 % of control and 117 % of control | [6] 94 % of control and 112 % of control | [10] 102 % of control and 109 % of control | [11] 101 % of control and 109 % of control | dose: 400.0 mg/kg/injection, schedule: Q01DX009 (ip), vehicle: saline with Tween-80 104 % of control and 119 % of control

CC(=O)OCC(=O)[C@@]12OC(C)(C)O[C@@H]1C[C@H]1[C@@H]3CC(C=O)=C4C=C(OCCCl)CC[C@]4(C)[C@@]3(F)[C@@H](O)C[C@@]12C
inactive: dose: 1.56 mg/kg/injection, schedule: Q01DX009 (ip), vehicle: Klucel (hydroxypropylcellulose) (HPC) 104 % of control | dose: 3.12 mg/kg/injection, schedule: Q01DX009 (ip), vehicle: Klucel (hydroxypropylcellulose) (HPC) 100 % of control | dose: 3.13 mg/kg/injection, schedule: Q01DX009 (ip), vehicle: Klucel (hydroxypropylcellulose) (HPC) 110 % of control | dose: 6.25 mg/kg/injection, schedule: Q01DX009 (ip), vehicle: Klucel (hydroxypropylcellulose) (HPC) 102 % of control and 112 % of control | [1] 104 % of control and 121 % of control
